The values below are quoted from earlier work in US7511156B2, “Analogs of Salinosporamide A” (President and Fellows of Harvard College, priority 2004, dated 2009).

Residues, ends and D or L forms follow the SMILES beside them. *: point of attachment. Cbz = O=C(OCc1ccccc1)*

This series relates to PC12 cells. The note with it: Tsubuki et al. 1993.

`CC(C)C[C@@H](C=O)NC(=O)[C@H](CC(C)C)NC(=O)[C@H](CC(C)C)NC(=O)OCc1ccccc1` [benzyloxycarbonyl (Z)-Leu-Leu-leucinal] (Cbz-Leu-Leu-Leu-aldehyde): the “optimal concentration inducing neurite outgrowth” value is 30 nM.
